Results published in patent US20130252811A1, “NOVEL HERBICIDE” (priority 2009, published 2013).

What was measured:
[1] = system: Echinochloa crus-galli (ECHCG); test: Flooded Echinochloa crus-galli, visual herbicidal damage (Biological Example 1, Test 125); assay type: in vivo; conditions: 14 DAA
Experimental: (§1) Rice seeds, variety IR-64 (an indica type of rice), were sown in seed trays. After 7 days the resulting plants were transplanted as 3 groups of 2 plants, into pots containing a standard sandy loam soil saturated with water replicating swampy conditions. These were grown on for a further 9 days in a glasshouse bay (30/20° C. day/night; 18/6 hours light/dark; 75% humidity). Leptochloa chinensis (LEFCH) and Echinochloa crus-galli (ECHCG) were sown as 2 separate groups of approx 10-20 seeds into pots 13 days prior to application of the test substances, in the same glasshouse conditions as the rice. Therefore, each pot of weeds contained a group of LEFCH and a separate group of ECHCG. All pots of rice and all pots of weeds were flooded to 2-3 cm water depth the day prior to application of the test substances. Growth stages at time of application were as follows: Rice: from 2 leaves on the main stem up to tillering; ECHCG: from 2 leaves on the main stem up to tillering; LEFCH: 2-3 leaves.
(§2) Test solutions were prepared by mixing the appropriate aliquots of the test substances in deionised water to give the desired treatment concentration. Most of the test substances were used as formulated products. Specifically, compound A-4 was applied as the EC050 formulation disclosed in Formulation Example 1 herein (EC=emulsifiable concentrate). Compound A-7 was applied as the EC050 Formulation disclosed in Formulation Example 2 herein. Compound A-9 was applied as the EC050 Formulation disclosed in Formulation Example 3 herein. Pyroxasulfone (a comparator co-herbicide) was applied as the SC050 formulation disclosed in Reference Formulation Example 7 herein (SC=Suspension concentrate). Imazosulfuron (a comparator co-herbicide) was applied as a GR0.25 formulation (GR=granule).
(§3) The test substances which were pure active ingredient (e.g. propyrisulfuron & fenoxasulfone) (labelled as ‘Technical’ in the following results table), were prepared by dissolving in 10.56% Emulsogen EL™ (castor oil ethoxylate, CAS Registry number 61791-12-6), 42.22% N-methylpyrrolidone and 42.22% dipropylene glycol mono-ethyl ether to give a stock solution containing 5% of the test substance and 95% of (Emulsogen EL™, N-methylpyrrolidone and dipropylene glycol mono-ethyl ether).
(§4) Application of the test substances was made by pipetting the required amount of the test solution or the test formulation gently into the flood water of the appropriate pot.
(§5) The test plants were then grown on in the same glasshouse conditions, and watered twice daily keeping the flood water at a depth of 2-3 cm.
(§6) A visual assessment of the % herbicidal damage was made 7 & 14 days after application (DAA), and the results are presented herein as % visual herbicidal damage where 0=no damage to plants and 100=total kill.

Rice IR-64 = test: Flooded transplanted rice, visual herbicidal damage (Biological Example 1, Test 125); assay type: in vivo, variety IR-64 (indica); conditions: 14 DAA, co-herbicide alone 10 g/ha
Experimental: as §1
Test solutions were prepared by mixing the appropriate aliquots of the test substances in deionised water to give the desired treatment concentration. Most of the test substances were used as formulated products. Specifically, compound A-4 was applied as the EC050 formulation disclosed in Formulation Example 1 herein (EC=emulsifiable concentrate). […]

[2] = system: Leptochloa chinensis (LEFCH); test: Flooded Leptochloa chinensis, visual herbicidal damage (Biological Example 1, Test 125); assay type: in vivo; conditions: 14 DAA
Experimental: as §1, §2, §3, §4, §5, §6

[3] = compound of formula (I) 60 g/ha, no co-herbicide, 0=no damage, 100=total kill
[4] = compound of formula (I) 90 g/ha, no co-herbicide
[5] = compound of formula (I) 120 g/ha, no co-herbicide

Structure (SMILES) | % damage to ECHCG [1, 3] | % damage to ECHCG [1, 4] | % damage to ECHCG [1, 5] | % damage to LEFCH [2, 3] | % damage to LEFCH [2, 4] | % damage to LEFCH [2, 5] | further results
Cn1nc(C(F)(F)F)c(CS(=O)(=O)C2=NOC(C)(C)C2)c1OC(F)F [pyroxasulfone, reference compound] | – | – | – | – | – | – | % damage to ECHCG ([1]; co-herbicide alone 10 g/ha): 60%; % damage to Rice IR-64 (Rice IR-64): 45%; % damage to LEFCH ([2]; co-herbicide alone 10 g/ha): 70%
CCOc1cc(Cl)c(CS(=O)(=O)C2=NOC(C)(C)C2)cc1Cl [fenoxasulfone, reference compound] | – | – | – | – | – | – | % damage to ECHCG ([1]; co-herbicide alone 200 g/ha): 65%; % damage to LEFCH ([2]; co-herbicide alone 200 g/ha): 70%
CCc1ccc(-c2ccc(Cl)cc2F)cc1C1C(=O)C(C)(C)OC(C)(C)C1=O [compound A-4] | 55% | 85% | 90% | 0% | 0% | 20% | –
CCc1ccc(-c2ccc(Cl)cc2Cl)cc1C1=C(OC(=O)OC)C(C)(C)OC(C)(C)C1=O [compound A-9] | 15% | 40% | 70% | 80% | 80% | 90% | herbicidal activity against LEFCH ([2]; compound alone (EC formulation) at 60, 90 or 120 g/ha): 80-90%
CCc1ccc(-c2ccc(Cl)cc2Cl)cc1C1C(=O)C(C)(C)OC(C)(C)C1=O [compound A-7] | 35% | 55% | 65% | 0% | 5% | 5% | –
CCCc1ccc2nc(Cl)c(S(=O)(=O)NC(=O)Nc3nc(OC)cc(OC)n3)n2n1 [propyrisulfuron, reference compound] | – | – | – | – | – | – | % damage to ECHCG ([1]; co-herbicide alone 80 g/ha): 80%; % damage to LEFCH ([2]; co-herbicide alone 80 g/ha): 0%
COc1cc(OC)nc(NC(=O)NS(=O)(=O)c2c(Cl)nc3ccccn23)n1 [imazosulfuron, reference compound] | – | – | – | – | – | – | % damage to ECHCG ([1]; co-herbicide alone 80 g/ha): 50%; % damage to LEFCH ([2]; co-herbicide alone 80 g/ha): 0%
